The test system of data set [1] is Leptosphaeria nodorum (LEPTNO). The data set can be described thus: Glume Blotch of Wheat, whole plant 24 Hour Protectant (T2). The note with it: Parastagonospora nodorum; wheat (cultivar Yuma), sprayed at 100 ppm, inoculated after 24 hours; read-out: T2 LEPTNO in vivo 1 Day Protectant, control of fungal infection.
Data set [2] deals with Phytophthora infestans (PHYTIN). The data set can be described thus: whole plant or invertebrate. The conditions noted are these: in Solanum lycopersicum, 24 h, read-out: T3 PHYTIN in vivo 1 Day Protectant, control of fungal infection.
Data set [3] deals with Puccinia recondita (PUCCRT). The data set can be described thus: Brown Rust of Wheat, whole plant 24 Hour Protectant (T5). The conditions noted are these: wheat (cultivar Yuma), sprayed at 100 ppm, inoculated after 24 hours, read-out: T5 PUCCRT in vivo 1 Day Protectant, control of fungal infection.
For data set [4], the system named is Stagonospora nodorum (Leptosphaeria nodorum, LEPTNO). The data set can be described thus: microbe, parasite or virus in culture. The note with it: Parastagonospora nodorum, read-out: T7 LEPTNO in vitro Growth Inhibition. It is filed as cell-based.
Data set [5] relates to Phytophthora infestans (PHYTIN). The data set can be described thus: microbe, parasite or virus in culture. The format is cell-based. The note with it: in Secale cereale, read-out: T8 PHYTIN in vitro Growth Inhibition.
The subject of data set [6] is Magnaporthe grisea (Pyricularia oryzae, PYRIOR). The data set can be described thus: microbe, parasite or virus in culture. The format is cell-based. The note with it: read-out: T9 PYRIOR in vitro Growth Inhibition.
The subject of data set [7] is Rhizoctonia solani (RHIZSO). The data set can be described thus: microbe, parasite or virus in culture. The format is cell-based. The conditions noted are these: read-out: T10 RHIZSO in vitro Growth Inhibition.
The subject of data set [8] is Mycosphaerella graminicola (Septoria tritici, SEPTTR). The data set can be described thus: microbe, parasite or virus in culture. It is filed as cell-based. The conditions noted are these: Zymoseptoria tritici, read-out: T11 SEPTTR in vitro Growth Inhibition.
Data set [9] relates to Ustilago maydis (USTIMA). The data set can be described thus: microbe, parasite or virus in culture. It is filed as cell-based. The conditions noted are these: Mycosarcoma maydis, read-out: T12 USTIMA in vitro Growth Inhibition.
Data set [10] concerns Erysiphe graminis (ERYSGT). The data set can be described thus: Powdery Mildew of Wheat, whole plant 24 Hour Protectant (T1). The conditions noted are these: Blumeria graminis, in Triticum aestivum, read-out: T1 ERYSGT in vivo 1 Day Protectant, control of fungal infection.
Data set [11] concerns Septoria tritici (SEPTTR). The data set can be described thus: Leaf Blotch of Wheat, whole plant 24 Hour Protectant (T6). The note with it: Zymoseptoria tritici; wheat (cultivar Monon), sprayed at 100 ppm, inoculated after 24 hours; read-out: T6 SEPTTR in vivo 1 Day Protectant, control of fungal infection.

The structures appear in SMILES notation.

The inhibition is the change of the read-out against control, counted positive when it falls. As a reminder, the melting point is the temperature, or range, at which the solid turns liquid.

Molecule `COCOc1c(OC)ccnc1C(=O)N[C@H]1COC(=O)[C@H](Cc2ccccc2)[C@@H](OC(=O)C(C)C)[C@H](C)OC1=O` [Compound 4] registered a melting point of 146 to 147 °C. For the same molecule, the pest or weed control at 100 ppm in [1] is 75 to 100%. The pest or weed control at 100 ppm in data set [2] was less than 25%. Further, the pest or weed control at 100 ppm in [3] was in the range of 75 to 100%. For the same molecule, the inhibition at 25 ppm in data set [4] was greater than 80%. The inhibition at 25 ppm in data set [5] was less than 80%. Besides, the inhibition at 25 ppm in [6] was greater than 80%. Besides, the inhibition at 25 ppm in data set [7] was less than 80%. Further, the inhibition at 25 ppm in [8] is less than 80%. The inhibition at 25 ppm in data set [9] was less than 80%. Further, the pest or weed control at 100 ppm in [10] was 25 to 74%.
On to `CCOCOc1c(OC)ccnc1C(=O)N[C@H]1COC(=O)[C@H](Cc2ccccc2)[C@@H](OC(=O)C(C)C)[C@H](C)OC1=O` [Compound 5], for which the melting point was in the range of 60 to 62 °C. In data set [1], the pest or weed control at 100 ppm was in the range of 75 to 100%. In data set [2], the pest or weed control at 100 ppm was less than 25%. The pest or weed control at 100 ppm in data set [3] was 75 to 100%. Also, the pest or weed control at 100 ppm in data set [11] was in the range of 75 to 100%. Besides, the inhibition at 25 ppm in data set [4] is greater than 80%. The inhibition at 25 ppm in data set [5] was less than 80%. For the same molecule, the inhibition at 25 ppm in data set [6] is less than 80%. In addition, the inhibition at 25 ppm in data set [7] was less than 80%. Besides, the inhibition at 25 ppm in data set [8] was less than 80%. For the same molecule, the inhibition at 25 ppm in [9] is less than 80%. For the same molecule, the pest or weed control at 100 ppm in data set [10] is 25 to 74%.
`COc1ccnc(C(=O)N[C@H]2COC(=O)[C@H](Cc3ccccc3)[C@@H](OC(=O)C(C)C)[C@H](C)OC2=O)c1OCOCc1ccccc1` [Compound 10] had a melting point of 56 to 60 °C. Moreover, the pest or weed control at 100 ppm in [1] is 75 to 100%. For the same molecule, in data set [2], the pest or weed control at 100 ppm is less than 25%. Besides, the pest or weed control at 100 ppm in [3] is 75 to 100%. Moreover, the inhibition at 25 ppm in [4] is greater than 80%. In [5], the inhibition at 25 ppm was greater than 80%. Moreover, the inhibition at 25 ppm in data set [6] was less than 80%. In addition, in [7], the inhibition at 25 ppm was less than 80%. For the same molecule, the inhibition at 25 ppm in [8] is greater than 80%. The inhibition at 25 ppm in data set [9] was less than 80%. In addition, the pest or weed control at 100 ppm in data set [10] was less than 25%.
Molecule `COc1ccnc(C(=O)N[C@H]2COC(=O)[C@H](Cc3ccccc3)[C@@H](OC(=O)C(C)C)[C@H](C)OC2=O)c1OCSC` [Compound 18] yielded a melting point of 146 to 148 °C. In data set [1], the pest or weed control at 100 ppm was 75 to 100%. Moreover, the pest or weed control at 100 ppm in data set [2] is less than 25%. For the same molecule, in data set [3], the pest or weed control at 100 ppm was in the range of 75 to 100%. For the same molecule, in data set [4], the inhibition at 25 ppm was greater than 80%. Also, the inhibition at 25 ppm in [5] is less than 80%. For the same molecule, in data set [6], the inhibition at 25 ppm is greater than 80%. For the same molecule, the inhibition at 25 ppm in data set [7] is greater than 80%. Further, the inhibition at 25 ppm in data set [8] is greater than 80%. In addition, in data set [9], the inhibition at 25 ppm was less than 80%. For the same molecule, in [10], the pest or weed control at 100 ppm is less than 25%.
The molecule `COc1ccnc(C(=O)N[C@H]2COC(=O)[C@H](Cc3ccccc3)[C@@H](OC(=O)C(C)C)[C@H](C)OC2=O)c1OCSc1ccccc1` [Compound 19] returned a melting point of 133 to 135 °C. Besides, the pest or weed control at 100 ppm in data set [1] lay within 75 to 100%. The pest or weed control at 100 ppm in data set [2] was less than 25%. In [3], the pest or weed control at 100 ppm lay in the range of 75 to 100%. Besides, the inhibition at 25 ppm in data set [4] was greater than 80%. Moreover, the inhibition at 25 ppm in data set [5] was less than 80%. Moreover, in [6], the inhibition at 25 ppm was greater than 80%. Moreover, the inhibition at 25 ppm in data set [7] is greater than 80%. Also, the inhibition at 25 ppm in [8] is greater than 80%. For the same molecule, the inhibition at 25 ppm in data set [9] is less than 80%. Moreover, the pest or weed control at 100 ppm in [10] was less than 25%.
`CCCO[C@H]1[C@H](C)OC(=O)[C@@H](NC(=O)c2nccc(OC)c2OCOC(C)=O)COC(=O)[C@@H]1Cc1ccccc1` [Compound 51] returned a melting point of 65 to 120 °C. In [1], the pest or weed control at 100 ppm is 75 to 100%. Also, the pest or weed control at 100 ppm in data set [2] was less than 25%. In addition, the pest or weed control at 100 ppm in data set [3] fell in the range of 75 to 100%. For the same molecule, the inhibition at 25 ppm in data set [4] is greater than 80%. Further, the inhibition at 25 ppm in [5] is less than 80%. In addition, the inhibition at 25 ppm in data set [6] was greater than 80%. Moreover, the inhibition at 25 ppm in [7] was greater than 80%. For the same molecule, the inhibition at 25 ppm in data set [8] was greater than 80%. In data set [9], the inhibition at 25 ppm is less than 80%. Besides, in [10], the pest or weed control at 100 ppm lay in the range of 75 to 100%.
On to `C=C(C)CO[C@H]1[C@H](C)OC(=O)[C@@H](NC(=O)c2nccc(OC)c2OCOC(C)=O)COC(=O)[C@@H]1Cc1ccccc1` [Compound 53], for which the melting point lay within 102 to 104 °C. Further, the pest or weed control at 100 ppm in data set [1] is 75 to 100%. For the same molecule, the pest or weed control at 100 ppm in data set [2] is less than 25%. In addition, the pest or weed control at 100 ppm in data set [3] fell in the range of 75 to 100%. Moreover, in data set [4], the inhibition at 25 ppm was greater than 80%. The inhibition at 25 ppm in data set [5] is greater than 80%. Besides, in data set [6], the inhibition at 25 ppm was greater than 80%. In addition, the inhibition at 25 ppm in data set [7] was less than 80%. Besides, in data set [8], the inhibition at 25 ppm is greater than 80%. In addition, in data set [9], the inhibition at 25 ppm is less than 80%. Also, in data set [10], the pest or weed control at 100 ppm is less than 25%.
Turning to `CCCO[C@H]1[C@H](C)OC(=O)[C@@H](NC(=O)c2nccc(OC)c2OCOC(=O)C2CCCC2)COC(=O)[C@@H]1Cc1ccccc1` [Compound 62], the pest or weed control at 100 ppm was 75 to 100% in data set [1]; less than 25% in data set [2]; 75 to 100% in [3]; 75 to 100% in data set [11]; 75 to 100% in data set [10]. Moreover, the inhibition at 25 ppm was greater than 80% in [4]; less than 80% in [5]; less than 80% in data set [6]; less than 80% in data set [7]; greater than 80% in data set [8]; greater than 80% in data set [9].
Regarding `CCCC(=O)OCOc1c(OC)ccnc1C(=O)N[C@H]1COC(=O)[C@H](Cc2ccccc2)[C@@H](OCC(C)C)[C@H](C)OC1=O` [Compound 63], the pest or weed control at 100 ppm is 75 to 100% in [1]; less than 25% in data set [2]; 75 to 100% in data set [3]; 75 to 100% in data set [11]; 75 to 100% in [10]. In addition, the inhibition at 25 ppm in [4] is greater than 80%; in data set [5], less than 80%; in data set [6] it was greater than 80%; in [7] it was less than 80%; in data set [8] it was greater than 80%; in data set [9] it was less than 80%.
In the case of `CCCO[C@H]1[C@H](C)OC(=O)[C@@H](NC(=O)c2nccc(OC)c2OCOC(=O)CCC)COC(=O)[C@@H]1Cc1ccccc1` [Compound 64], the pest or weed control at 100 ppm in data set [1] is 75 to 100%; in data set [2], less than 25%; in data set [3] it was 75 to 100%; in data set [11] it was 75 to 100%; in [10] it was 75 to 100%. The inhibition at 25 ppm in [4] is greater than 80%; in [5] it was less than 80%; in [6], greater than 80%; in data set [7], less than 80%; in data set [8], greater than 80%; in [9] it was less than 80%.
Turning to `CCOCC(=O)OCOc1c(OC)ccnc1C(=O)N[C@H]1COC(=O)[C@H](Cc2ccccc2)[C@@H](OCSC)[C@H](C)OC1=O` [Compound 72], the pest or weed control at 100 ppm in [1] is 75 to 100%; in data set [2], less than 25%; in [3], 75 to 100%; in data set [11], 25 to 74%; in [10], 25 to 74%. Besides, the inhibition at 25 ppm in data set [4] was greater than 80%; in data set [5] it was less than 80%; in data set [6], greater than 80%; in [7], less than 80%; in data set [8], greater than 80%; in data set [9], greater than 80%.
Consider `COc1ccnc(C(=O)N[C@H]2COC(=O)[C@H](Cc3ccccc3)[C@@H](OCSC)[C@H](C)OC2=O)c1OCOC(=O)C1CCCC1` [Compound 73], for which the pest or weed control at 100 ppm in [1] is 75 to 100%; in data set [2], less than 25%; in data set [3], 75 to 100%; in [11], 75 to 100%; in data set [10] it was 25 to 74%. The inhibition at 25 ppm in [4] was greater than 80%; in data set [5] it was less than 80%; in data set [6], greater than 80%; in data set [7] it was less than 80%; in data set [8], greater than 80%; in [9], greater than 80%.
Consider `COCCOCC(=O)OCOc1c(OC)ccnc1C(=O)N[C@H]1COC(=O)[C@H](Cc2ccccc2)[C@@H](OCSC)[C@H](C)OC1=O` [Compound 74], for which the pest or weed control at 100 ppm in data set [1] was 75 to 100%; in [2] it was less than 25%; in data set [3], 75 to 100%; in [11], 25 to 74%; in data set [10], 25 to 74%. The inhibition at 25 ppm in [4] is greater than 80%; in data set [5], less than 80%; in data set [6] it was greater than 80%; in data set [7], less than 80%; in data set [8], greater than 80%; in data set [9], greater than 80%.
